The record followed here is patent US8080546B2, “Pyrazolo-pyridinone derivatives and methods of use” (Amgen Inc., priority 2007, dated 2011).

One experiment relates to THP1 cells. Put plainly: Lipopolysaccharide-activated THP1 cell TNF production assay (THP1 cell based). The note with it: Homo sapiens, THP-1, LPS-induced TNF-α, actual values. How it is done: Lipopolysaccharide-Activated THP1 Cell TNF Production Assay
THP1 cells are resuspended in fresh THP1 media (RPMI 1640, 10% heat-inactivated FBS, 1XPGS, 1XNEAA, plus 30 μM PME) at a concentration of 1E6/mL. One hundred microliters of cells per well are plated in a polystyrene 96-well tissue culture. One microgram per mL of bacterial LPS is prepared in THP1 media and is transferred to the wells. Test compounds are dissolved in 100% DMSO and are serially diluted 3-fold in a polypropylene 96-well microtiter plate (drug plate). HI control and LO control wells contain only DMSO. One microliter of test compound from the drug plate followed by 10 μL of LPS are transferred to the cell plate. The treated cells are induced to synthesize and secrete TNF-α at 37° C. for 3 h. Forty microliters of conditioned media are transferred to a 96-well polypropylene plate containing 110 μL of ECL buffer (50 mM Tris-HCl pH 8.0, 100 mM NaCl, 0.05% Tween 20, 0.05% NaN3 and 1% FBS) supplemented with 0.44 nM MAB610 monoclonal Ab (R&D Systems), 0.34 nM ruthenylated AF210NA polyclonal Ab (R&D Systems) and 44 μg/mL sheep anti-mouse M280 Dynabeads (Dynal). After a 2 h incubation at room temperature with shaking, the reaction is read on the ECL M8 Instrument (IGEN Inc.). A low voltage is applied to the ruthenylated TNF-α immune complexes, which in the presence of TPA (the active component in Origlo), results in a cyclical redox reaction generating light at […]. The amount of secreted TNF-α in the presence of compound compared with that in the presence of DMSO vehicle alone (HI control) is calculated using the formula: % control (POC)=(cpd−average LO)/(average HI−average LO)*100. Data (consisting of POC and inhibitor concentration in μM) is fitted to a 4-parameter equation (y=A+((B−A)/(1+((x/C)^D))), where A is the minimum y (POC) value, B is the maximum y (POC), C is the x (cpd concentration) at the point of inflection and D is the slope factor) using a Levenburg-Marquardt non-linear regression algorithm.

For another experiment, the target named is p38 (Homo sapiens, UniProt Q16539). Kind of experiment: p38 in-vitro HTRF enzyme assay. The format is biochemical. Conditions: recombinant human enzyme; actual values; read-out: p38 enyme HTRF assay IC50. How it is done:
p38 In-Vitro HTRF Enzyme Assay
The compounds of the invention can be tested for their respective affinities for the p38 protein using a conventional p38 in-vitro enzyme activity assay. For example, a P38-alpha HTRF assay may be used to measure the protein's in-vitro phosphorylation activity, and the data analyzed using time resolved fluorimetry techniques (FRET). A p38 HTRF assay is as follows. The kinase reaction buffer for p38α, p38β, p38δ and p38γ HTRF assays consists of 50 mM Tris-pH 7.5, 5 mM MgCl2, 0.1 mg/mL BSA, 100 μM Na3VO4 and 0.5 mM DTT. The HTRF detection buffer contains 100 mM HEPES-pH 7.5, 100 mM NaCl, 0.1% BSA, 0.05% Tween-20, and 10 mM EDTA. Each compound was dissolved in 100% DMSO and serially diluted (3 fold, 10 point) in a polypropylene 96-well microtiter plate (drug plate). The final starting concentration of the compound in the p38α and p38β enzymatic assays was about 1 μM. The final starting concentration of each compound in the p38δ and p38γ enzymatic assays was about 10 μM. The p38α, p38β, p38δ and p38γ kinase reactions were carried out in a polypropylene 96-well black round bottom assay plate in total volume of 30 μL kinase reaction buffer. Appropriate concentration of purified and activated enzyme (recombinant human) was mixed with indicated concentration of ATP and 100 nM GST-ATF2-Avitag, in the presence or absence (HI control) of each compound. In the absence of enzyme, the background was measured as LO control. HI controls and LO controls contained only DMSO. The reaction was allowed to incubate for 1 hour at RT. […] After 60 minutes incubation at room temperature, the assay plate was read in a Discovery Plate Reader. […] The resulting data was analyzed by taking the proportion of substrate phosphorylated in the kinase reaction in the presence of each individual compound and comparing it with that phosphorylated in the presence of DMSO vehicle alone (HI control). The data was calculated using the formula: % control (POC)=(compound−average LO)/(average HI−average LO)*100. […] All results were expressed as the mean±the standard error of the mean. Data acquisition and non-linear regression algorithms were performed using Activity Base v5.2 and XLfit software v4.1 respectively. Additional assay information may be obtained in Park Y W, Cummings R T, Wu L, et al. Homogeneous Proximity Tyrosine Kinase Assays Scintillation Proximity Assay versus Homogeneous Time-Resolved Fluorescence. Analytical Biochemistry.
In general terms: In TR-FRET formats the signal depends on donor and acceptor labels being close together.

The next experiment deals with IL-1. Put plainly: LPS induced IL-1 cell based assay (LPS-activated monocytes). Conditions: Homo sapiens, Monocyte; actual values. How it is done:
Lipopolysaccharide-Activated Monocyte TNF Production Assay
Test compounds were evaluated in vitro for the ability to inhibit the production of TNF by monocytes activated with bacterial lipopolysaccharide (LPS). Fresh residual source leukocytes (a byproduct of plateletpheresis) were obtained from a local blood bank, and peripheral blood mononuclear cells (PBMCs) were isolated by density gradient centrifugation on Ficol-Paque Plus (Pharmacia). PBMCs were suspended at 2×10^6/mL in DMEM supplemented to contain 2% FCS, 10 mM, 0.3 mg/mL […], 100 U/mL penicillin G and […] streptomycin sulfate (complete media). Cells were plated into Falcon flat bottom, 96 well culture plates (200 μL/well) and cultured overnight at 37° C. and 6% CO2. Non-adherent cells were removed by washing with 200 μl/well of fresh medium. Wells containing adherent cells (˜70% monocytes) were replenished with 100 μL of fresh medium.
Preparation of Test Compound Stock Solutions
Test compounds were dissolved in […]. Compound stock solutions were prepared to an initial concentration of […]. Stocks were diluted initially to 20-200 μM in complete media. Nine two-fold serial dilutions of each compound were then prepared in complete medium.
Treatment of Cells with Test Compounds and Activation of TNF Production with Lipopolysaccharide
One hundred microliters of each test compound dilution were added to microtiter wells containing adherent monocytes and 100 μL complete medium. Monocytes were cultured with test compounds for 60 min at which time 25 μL of complete medium containing 30 ng/mL lipopolysaccharide from E. coli K532 were added to each well. Cells were cultured an additional 4 hrs. Culture supernatants were then removed and TNF presence in the supernatants was quantified using an ELISA. […]
Standard curve data were fit to a second order polynomial and unknown TNF-α concentrations determined from their OD by solving this equation for concentration. TNF concentrations were then plotted vs. test compound concentration using a second order polynomial. This equation was then used to calculate the concentration of test compounds causing a 50% reduction in TNF production.
Compounds of the invention can also be shown to inhibit LPS-induced release of IL-1β, IL-6 and/or IL-8 from monocytes by measuring concentrations of IL-1β, IL-6 and/or IL-8 by methods well known to those skilled in the art. […] Thus, the compounds of the invention may lower elevated levels of TNF-α, IL-1, IL-6, and IL-8 levels. Reducing elevated levels of these inflammatory cytokines to basal levels or below is favorable in controlling, slowing progression, and alleviating many disease states.

p38, sequence (Q16539 whole entry): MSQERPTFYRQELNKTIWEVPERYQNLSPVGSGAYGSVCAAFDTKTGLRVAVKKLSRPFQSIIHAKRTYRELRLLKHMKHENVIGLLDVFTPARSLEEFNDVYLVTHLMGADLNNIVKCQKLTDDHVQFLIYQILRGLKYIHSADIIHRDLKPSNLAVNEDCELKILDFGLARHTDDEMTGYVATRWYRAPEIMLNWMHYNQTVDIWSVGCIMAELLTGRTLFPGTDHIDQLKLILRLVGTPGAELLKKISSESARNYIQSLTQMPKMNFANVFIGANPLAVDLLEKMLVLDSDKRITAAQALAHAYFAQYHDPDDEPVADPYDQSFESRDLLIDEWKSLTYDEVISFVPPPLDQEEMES

Consider `CCn1c(=O)cc(Nc2cc(C(=O)NC3CC3)ccc2Cl)c2cnn(-c3ccc(F)cc3F)c21` [Example 27, 4-chloro-N-cyclopropyl-3-((1-(2,4-difluorophenyl)-7-ethyl-6-oxo-6,7-dihydro-1H-pyrazolo[3,4-b]pyridin-4-yl)amino)benzamide], for which the values for the IC50 in the experiment with THP1 cells, at p38 and in the experiment on IL-1 were 0.4 nM, 1.2 nM and 3.3 nM, respectively.

For the molecule `Cn1c(=O)cc(Nc2cc(C(=O)NC3CC3)ccc2Cl)c2cnn(-c3ccc(F)cc3)c21` [Example 28, 4-chloro-N-cyclopropyl-3-((1-(4-fluorophenyl)-7-methyl-6-oxo-6,7-dihydro-1H-pyrazolo[3,4-b]pyridin-4-yl)amino)benzamide], the IC50 (as a rule, the concentration that inhibits the measured activity by half) in the experiment on THP1 cells turned out to be 0.8 nM; on p38, 2.1 nM; with IL-1, 4.2 nM.

As for `CCn1c(=O)cc(Nc2cc(C(=O)NC3CC3)ccc2Cl)c2cnn(-c3ccc(F)cc3)c21` [Example 29, 4-chloro-N-cyclopropyl-3-((7-ethyl-1-(4-fluorophenyl)-6-oxo-6,7-dihydro-1H-pyrazolo[3,4-b]pyridin-4-yl)amino)benzamide], the IC50 in the experiment on THP1 cells is 1.4 nM; on p38 it was 1.7 nM; with IL-1 it was 3.6 nM.

As to `CONC(=O)c1ccc(C)c(Nc2cc(=O)n(C)c3c2cnn3-c2ccc(F)cc2F)c1` [Example 30, 3-((1-(2,4-difluorophenyl)-7-methyl-6-oxo-6,7-dihydro-1H-pyrazolo[3,4-b]pyridin-4-yl)amino)-N-methoxy-4-methylbenzamide], the IC50 with THP1 cells stood at 0.6 nM; on p38, 1.6 nM; with IL-1, 3.8 nM.
